Results reported in patent US7741479B2, “Urea inhibitors of MAP kinases” (Locus Pharmaceuticals, Inc., priority 2004, dated 2010).

Target: T1, p38 (Homo sapiens, UniProt Q16539)
T1 construct: made in house
Experiment: Protein Kinase Assay (33P incorporation from γ-[33P]ATP into GST-ATF-2 substrate)
Type: biochemical
Conditions: same procedure at 0.5 μM
How it was run: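 Non-activated human p38 (10 nM) was preincubated with compounds for 20 min at 30° C, then GST-ATF-2 (aa 19-96) and γ-[33P]ATP were added for 70 min at 30° C. Reactions were stopped with phosphoric acid; phosphorylated substrate was captured on phosphocellulose and scintillation-counted.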

T1 sequence (Q16539 whole entry): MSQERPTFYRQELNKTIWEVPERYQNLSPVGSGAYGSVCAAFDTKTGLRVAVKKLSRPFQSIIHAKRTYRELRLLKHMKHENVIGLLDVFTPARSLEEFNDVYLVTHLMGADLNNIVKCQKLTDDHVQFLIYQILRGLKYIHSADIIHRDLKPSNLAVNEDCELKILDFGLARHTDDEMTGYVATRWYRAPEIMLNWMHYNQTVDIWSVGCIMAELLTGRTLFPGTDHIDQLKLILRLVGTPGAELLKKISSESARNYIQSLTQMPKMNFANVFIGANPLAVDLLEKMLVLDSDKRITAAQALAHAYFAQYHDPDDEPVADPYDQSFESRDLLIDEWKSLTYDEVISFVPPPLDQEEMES

inhibition at 0.5 µM: 76 to 100%
SMILES: CC(C)(C)c1cc(C(=O)N2CCNC(=O)C2(C)C)c(NC(=O)Nc2cccc(Cl)c2Cl)s1 [Example 136, 1-[5-tert-Butyl-3-(2,2-dimethyl-3-oxo-piperazine-1-carbonyl)thiophen-2-yl]-3-(2,3-dichlorophenyl)urea]
